Test results: PMC10947197, “Acid‐Resistant BODIPY Amino Acids for Peptide‐Based Fluorescence Imaging of GPR54 Receptors in Pancreatic Islets” (Angewandte Chemie (International Ed. in English), 2023)

Key:
[1] = Solubility: linear regression of HPLC peak area in DMSO and PBS; type: physicochemical; conditions: DMSO and PBS (≤1% DMSO), HPLC-MS with UV detection at 510 nm
Procedure: (§1) S u p p l emen t ary Figure 7. Nor m alized f luoresc ence em is s ion of Trp-BODIPY PLUS ( 50 µ M , buf f er ) at 37° C und er c o nt inu ous l ight ir r adi at ion ( Xe l am p, 20 W ) . λexc: 450 nm; λem: 510 nm . V alues pr es ent e d as m eans ±S D ( n= 6).
(§2) Supplementary Figure 8 . Linear r egr es s ions of t he p eak a bs or b anc e ar ea ( m A U) of T rp-BO DI PY PLUS in DMSO (re d) an d PBS (c ont a ini ng ≤ 1% DM S O , bl ue) at d if f er ent c onc ent r at i ons of t he ami no ac id. Valu es wer e det ermi ned by HPLC-MS us ing UV det ec t ion at 51 0 nm . R2 v alues : 0. 99 9 ( r ed) , 0. 99 4 ( blu e) .
(§3) (also on this page, place not known: time (min) Normalized photostability Normalized fluorescence emission (50 µM, buffer) 37°C under continuous light irradiation (Xe lamp, W) nm; nm. Values presented means±SD (n=6). µM) Peak area (mAU) DMSO) Supplementary 8. regressions the peak absorbance area (mAU) Trp-BODIPY DMSO (red) and (containing ≤1% DMSO, blue) different concentrations the amino acid. Values were determined using detection 510 nm. values: 0.999 (red), 0.994 (blue).)

[2] = Photostability under continuous light irradiation; type: physicochemical; conditions: 50 µM, buffer, 37°C, continuous irradiation (Xe lamp, 20 W), λexc 450 nm, λem 510 nm, n=6
Procedure: as §1, §2, §3

## CC1=CC(C)=[N+]2C1=C(c1cccc(-c3[nH]c4ccccc4c3C[C@H](NC(=O)OCC3c4ccccc4-c4ccccc43)C(=O)O)c1)c1c(C)cc(C)n1[B-]2(C#N)C#N [Trp-BODIPY PLUS]
[1]
  Solubility (in words): suitable solubility
[2]
  Photostability (in words): suitable solubility and photo‐ and chemical stability for long‐term storage
